The results in this text go back to US7109193B2, “Tricyclic diazepines tocolytic oxytocin receptor antagonists” (Wyeth, priority 2001, dated 2006).

This assay concerns the target T1, human oxytocin receptor (Homo sapiens, UniProt P30559).
T1 construct: host or cells: CHO cells (pcDNA3.1 vector)
T1 sequence (P30559 1-389): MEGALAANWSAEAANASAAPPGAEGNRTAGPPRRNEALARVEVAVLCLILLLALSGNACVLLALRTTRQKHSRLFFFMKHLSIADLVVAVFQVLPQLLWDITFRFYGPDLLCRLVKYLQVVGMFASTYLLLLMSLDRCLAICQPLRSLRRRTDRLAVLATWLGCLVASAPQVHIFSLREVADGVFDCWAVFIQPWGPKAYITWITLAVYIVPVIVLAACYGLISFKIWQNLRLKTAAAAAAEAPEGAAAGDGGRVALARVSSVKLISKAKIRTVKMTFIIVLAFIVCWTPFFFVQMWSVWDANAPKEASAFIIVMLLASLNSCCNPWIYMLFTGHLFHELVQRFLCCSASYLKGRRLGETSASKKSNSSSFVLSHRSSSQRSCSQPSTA
As to the kind of experiment: Oxytocin binding in Chinese Hamster Ovary cell membranes expressing human oxytocin receptors. Conditions: 100 nM, CHO cell membranes, [3H]oxytocin, values without parentheses; for inhibition at 0.1 µM: read-out: OT % inhibition @ 100% nM. Here is the method: Oxytocin Binding in Chinese Hamster Ovary Cell Membranes Expressing Human Oxytocin Receptors
The trypsin is removed by aspiration and the cells dislodged by tapping. Cell Culture medium (e.g. 30 mL for 1:30 split) is immediately added and mixed well to inactivate trypsin. 1 mL of detached cells is added to new culture flasks containing fresh Cell Culture medium (e.g. into 25 mL per T-150 flask), and mixed gently. The cells are incubated at 37° C. in 5% CO2. The medium is changed at 3 to 4 days interval (or as appropriate). […] All steps are done under sterile conditions. B. Membrane Preparation: The cells are washed twice gently with Hank's Balanced Salt solution (e.g., use 10 mL per T-150 flask). […] The contents are transferred to centrifuge tubes (50 mL size) kept in ice bath. All subsequent steps are done at 4° C. The tubes are centrifuged at 300×g for 15 min (1380 rpm on SORVAL, Model RT6000D, using rotor for 50 mL tubes). The supernatant is discarded and the cells suspended in homogenizing buffer (10 mM Tris-HCl containing 0.25 M sucrose and 1 mM EDTA, pH 7.4) ensuring that the volume of the buffer is about ten times the volume of the cell pellet. The cells are pooled into a centrifuge tube (50 mL) and homogenized with a Polytron at setting 6 for 10 sec. The homogenate is transferred into a Potter-Elvjehm homogenizer and homogenized with 3 strokes. The homogenate is centrifuged at 1500×g for 10 min at 4° C. (3100 rpm using SORVAL, model RT6000D, using rotor for 50 mL tubes). The pellet is discarded. The supernatant is centrifuged at 100,000×g for 60 min. at 4° C. (Beckman L8-80M ultracentrifuge; spin at 37,500 rpm with rotor type 70 Ti for 50 mL tubes; 38,000 rpm with type 80Ti for 15 mL tubes; or 35,800 rpm with rotor type 45Ti). The supernantant is discarded and the pellet suspended in 3 to 4 mL of Tris buffer (50 mM TRIS-HCl, pH 7.4). The protein content is estimated by the Bradford or Lowry method. The volume of the membrane suspension is adjusted with the membrane buffer (50 mM Tris-HCl containing 0.1% BSA and 0.1 mM PMSF) to give 3.0 mg/mL (or as appropriate) of protein. The membranes are aliquoted and stored at −70° C. C. Radioligand Binding Assay: In wells of a 96-well format microtiter plate, is added 90, 110 or 130 μL (to make up a final volume of 200 μL) of assay buffer containing 50 mM of Tris-HCl (pH 7.4), […], 1 mg % aprotinin, 1 mg % leupeptin, 2 mg % 1,10-phenanthroline, 10 mg % trypsin inhibitor, and 0.1 mM PMSF. The inhibitors are added on the day of the experiment. The components are mixed at room temperature, and then kept in ice bath following adjustment of the pH to 7.4. […] For oxytocin and other peptide ligands, 20 μL of 50% DMSO is added and the assay buffer volume is adjusted accordingly. To each well is added 50 μL of frozen membrane suspension thawed immediately prior to use and diluted in assay buffer to the required concentration (equivalent to 25 to 50 μg of protein/well as needed). 20 μL of 8 nM [^3H]oxytocin in the assay buffer, prepared just before use is added and incubated at room temperature for 60 min. shaking the plate on a mechanical shaker for the first 15 min. The incubation is stopped by rapid filtration of the plate contents followed by washing with ice-cold buffer (50 mM Tris-HCl, pH 7.4) using a cell harvester (Tomtek and Printed filtermat-B filter paper). The filter paper is thoroughly dried (7–12 min. in a microwave oven) and impregnated with MeltiLex B/H melt-on scintillation wax sheets and the radioactivity counted in a betaplate scintillation counter.
Binding data is either reported as percent inhibition at a certain concentration or if an IC50 was calculated, as a nanomolar concentration.

SMILES strings stand for the structures.

Consider `COc1ccccc1-c1ccc(C(=O)N2Cc3ccc(C(=O)NCCN4CCCCC4)n3Cc3ccccc32)cc1` [Example 152, 10-[(2′-Methoxy[1,1′-biphenyl]-4-yl)carbonyl]-N-[2-(1-piperidinyl)ethyl]-10,11-dihydro-5H-pyrrolo[2,1-c][1,4]benzodiazepine-3-carboxamide], for which the inhibition at 0.1 µM amounted to 63%.

For `COc1cccc(-c2ccc(C(=O)N3Cc4ccc(C(=O)N5CCC(N6CCCCC6)CC5)n4Cc4ccccc43)cc2OC)c1` [Example 120, {10-[(2,3′-Dimethoxy-[1,1′-biphenyl]-4-yl)carbonyl]-10,11-dihydro-5H-pyrrolo[2,1-c][1,4]benzodiazepin-3-yl}[4-(1-piperidinyl)-1-piperidinyl]methanone], the inhibition at 0.1 µM stood at 69%.

For `COc1cccc(-c2ccc(C(=O)N3Cc4ccc(C(=O)N5CCC(N6CCCC6)CC5)n4Cc4ccccc43)cc2OC)c1` [Example 146, {10-[(2,3′-Dimethoxy[1,1′-biphenyl]-4-yl)carbonyl]-10,11-dihydro-5H-pyrrolo[2,1-c][1,4]benzodiazepin-3-yl}[4-(1-pyrrolidinyl)-1-piperidinyl]methanone], the inhibition at 0.1 µM was 78%. On to `COc1cc(-c2ccccc2C)c(Cl)cc1C(=O)N1Cc2ccc(C(=O)N3CCC[C@H]3CN3CCCC3)n2Cc2ccccc21` [Example 267, {10-[(6-Chloro-3-methoxy-2′-methyl[1,1′-biphenyl]-4-yl)carbonyl]-10,11-dihydro-5H-pyrrolo[2,1-c][1,4]benzodiazepin-3-yl}[(2S)-2-(1-pyrrolidinylmethyl)pyrrolidinyl]methanone], for which the “OT % inhibition @ 100% nM” value turned out to be 93%. `COc1cccc(-c2ccc(C(=O)N3Cc4ccc(C(=O)N5CCN(CCN(C)C)CC5)n4Cc4ccccc43)cc2C)c1` [Example 199, {4-[2-(Dimethylamino)ethyl]-1-piperazinyl{}10-[(3′-methoxy-2-methyl[1,1′-biphenyl]-4-yl)carbonyl]-10,11-dihydro-5H-pyrrolo[2,1-c][1,4]benzodiazepin-3-yl}methanone]: the “OT % inhibition @ 100% nM” value came out at 84%.

`Cc1cc(C(=O)N2Cc3ccc(C(=O)N4CCC(N5CCCC5)CC4)n3Cc3ccccc32)ccc1-c1ccccc1C(F)(F)F` [Example 148, (10-{[2-Methyl-2′-(trifluoromethyl)[1,1′-biphenyl]-4-yl]carbonyl}-10,11-dihydro-5H-pyrrolo[2,1-c][1,4]benzodiazepin-3-yl)[4-(1-pyrrolidinyl)-1-piperidinyl]methanone]: the inhibition at 0.1 µM was 78%. Turning to `COc1cc(C(=O)N2Cc3ccc(C(=O)N4CCC[C@H]4CN4CCCC4)n3Cc3ccccc32)ccc1-n1c(C)ccc1C` [Example 321, {10-[4-(2,5-Dimethyl-1H-pyrrol-1-yl)-3-methoxybenzoyl]-10,11-dihydro-5H-pyrrolo[2,1-c][1,4]benzodiazepin-3-yl}[(2S)-2-(1-pyrrolidinylmethyl)pyrrolidinyl]methanone], the “OT % inhibition @ 100% nM” value is reported as 62%. Regarding `COc1ccccc1-c1ccc(C(=O)N2Cc3ccc(C(=O)NCCCn4ccnc4)n3Cc3ccccc32)cc1C` [Example 123, N-[3-(1H-Imidazol-1-yl)propyl]-10-[(2′-methoxy-2-methyl[1,1′-biphenyl]-4-yl)carbonyl]-10,11-dihydro-5H-pyrrolo[2,1-c][1,4]benzodiazepine-3-carboxamide], the inhibition at 0.1 µM came to 47%. As to `COc1cccc(-c2ccc(C(=O)N3Cc4ccc(C(=O)N(C)CCCN(C)C)n4Cc4ccccc43)cc2OC)c1` [Example 108, 10-[(2,3′-Dimethoxy[1,1′-biphenyl]-4-yl)carbonyl]-N-[3-(dimethylamino)propyl]-N-methyl-10,11-dihydro-5H-pyrrolo[2,1-c][1,4]benzodiazepine-3-carboxamide], the inhibition at 0.1 µM was 96%.

Take `COc1cc2c(cc1OC)N(C(=O)c1ccc(-c3ccccc3C(F)(F)F)c(C)c1)Cc1ccc(C(=O)N(C)CCCN(C)C)n1C2.Cl` [Example 13, N-Methyl-[N-(3-dimethylamino)propyl]-7,8-dimethoxy-10-{[2-methyl-2′-(trifluoromethyl)[1,1′-biphenyl]-4-yl]carbonyl}-10,11-dihydro-5H-pyrrolo[2,1-c][1,4]benzodiazepine-3-carboxamide hydrochloride salt]: the “OT % inhibition @ 100% nM” value is reported as 33%. Same read-out and setting: then `COc1cccc(-c2ccc(C(=O)N3Cc4ccc(C(=O)NCCC5CCCN5C)n4Cc4ccccc43)cc2C)c1` (stereo not shown) [Example 164, 10-[(3′-Methoxy-2-methyl[1′1′-biphenyl]-4-yl)carbonyl]-N-[2-(1-methyl-2-pyrrolidinyl)ethyl]-10,11-dihydro-5H-pyrrolo[2,1-c][1,4]benzodiazepine-3-carboxamide], with 54%. In the case of `COc1cccc(-c2ccc(C(=O)N3Cc4ccc(C(=O)NCCCn5ccnc5)n4Cc4ccccc43)cc2C)c1` [Example 125, N-[3-(1H-Imidazol-1-yl)propyl]-10-[(3′-methoxy-2-methyl[1,1′-biphenyl]-4-yl)carbonyl]-10,11-dihydro-5H-pyrrolo[2,1-c][1,4]benzodiazepine-3-carboxamide], the inhibition at 0.1 µM was 36%. For `Cc1ccccc1-c1ccc(C(=O)N2Cc3ccc(C(=O)N4CC[C@@H](N(C)C)C4)n3Cc3ccccc32)cc1` [Example 280, [(3R)-3-(Dimethylamino)pyrrolidinyl]{10-[(2′-methyl[1,1′-biphenyl]-4-yl)carbonyl]-10,11-dihydro-5H-pyrrolo[2,1-c][1,4]benzodiazepin-3-yl}methanone], the “OT % inhibition @ 100% nM” value was found to be 95%. For the compound `COc1cccc(-c2cc(OC)c(C(=O)N3Cc4ccc(C(=O)N5CC[C@@H](N(C)C)C5)n4Cc4ccccc43)cc2Cl)c1` [Example 275, {10-[(6-Chloro-3,3′-dimethoxy[1,1′-biphenyl]-4-yl)carbonyl]-10,11-dihydro-5H-pyrrolo[2,1-c][1,4]benzodiazepin-3-yl}[(3R)-3-(dimethylamino)pyrrolidinyl]methanone], the “OT % inhibition @ 100% nM” value was determined as 89%. For `Cc1ccccc1-c1ccc(C(=O)N2Cc3ccc(C(=O)N4CCC(N5CCCCC5)CC4)n3Cc3ccccc32)cc1` [Example 115, {10-[(2′-Methyl[1,1′-biphenyl]-4-yl)carbonyl]-10,11-dihydro-5H-pyrrolo[2,1-c][1,4]benzodiazepin-3-yl}[4-(1-piperidinyl)-1-piperidinyl]methanone], the inhibition at 0.1 µM was found to be 25%. Consider `COc1ccccc1-c1ccc(C(=O)N2Cc3ccc(C(=O)N4CCC(N5CCCC5)CC4)n3Cc3ccccc32)cc1C` [Example 137, {10-[(2′-Methoxy-2-methyl[1,1′-biphenyl]-4-yl)carbonyl]-10,11-dihydro-5H-pyrrolo[2,1-c][1,4]benzodiazepin-3-yl}[4-(1-pyrrolidinyl)-1-piperidinyl]methanone], for which the inhibition at 0.1 µM was 88%.

As usually defined, the inhibition is the share of the control response that was lost under treatment.
